Blank lines part the entries; values can stand above or below the compound they belong to.
Assay: solvent given as SMILES

- absorption maximum (in ClCCl): 522 nm
SMILES: CCc1ccccc1-c1c2ccccc2c(C#Cc2ccccc2)c2cc3ccccc3cc12

- absorption maximum (in CCCCCC): 611 nm
- absorption maximum (in CCCCCCCCO): 615 nm
- absorption maximum (in CCOC(C)=O): 610 nm
- absorption maximum (in CN(C)C=O): 615 nm
- absorption maximum (in ClCCl): 616 nm
SMILES: COc1ccc(C#Cc2c3ccccc3c3n2[B-](F)(F)[N+]2=C(C)C=C(C)C2=C3)cc1

- absorption maximum (in ClCCl): 311 nm
SMILES: COC(=O)C1=C(C(=O)OC)C2(c3ccccc3-c3ccccc32)[C@@H](c2ccc(C)cc2)C=C2c3cc(OC)c(OC)cc3CCN21

- absorption maximum (in c1ccccc1): 404 nm
SMILES: O=c1oc2ccc3ccccc3c2nc1-c1ccc(Cl)cc1

- absorption maximum (in ClCCl): 364 nm
SMILES: CC(C)(C)NC(=O)c1ccc(-c2cc3ccccc3o2)c2ccc3c4ccccc4c4ccccc4c3c12

- absorption maximum (in C1CCOC1): 365 nm
SMILES: C(=C1c2ccccc2-c2ccccc21)c1ccc(C=C2c3ccccc3-c3ccccc32)cc1

- absorption maximum (in CCO): 440 nm
SMILES: CC(C)(C)OC(=O)NC(Cc1ccccc1)C(=O)OCc1ccc2c3cccc4cccc(c5cccc1c52)c43 (stereo not given)

- absorption maximum (in CC#N): 421 nm
SMILES: c1ccc(C[n+]2cc3ccc4c[n+](Cc5ccccc5)cc5ccc(c2)c3c45)cc1

- absorption maximum (in ClCCl): 350 nm
SMILES: CCN(CC)c1ccc2c(c1)oc(=O)c1cc3c(-c4ccccc4)nn(C)c3nc12

- absorption maximum (in CCO): 590 nm
- absorption maximum (in O): 590 nm
SMILES: CC/[NH+]=c1\cc2oc3cc(NCCNC(=O)C(NC(=O)OC(C)(C)C)C(C)C)c4ccccc4c3nc-2cc1C (stereo not given)

- absorption maximum (in ClCCl): 497 nm
SMILES: CC1=C(C)c2cccc3c2c(cc2nc4ccccc4nc23)O1

- absorption maximum (in C1CCOC1): 314 nm
- absorption maximum (in CC(C)O): 309 nm
- absorption maximum (in CCCCCC): 314 nm
- absorption maximum (in CO): 309 nm
- absorption maximum (in CS(C)=O): 313 nm
- absorption maximum (in ClCCl): 311 nm
SMILES: Cc1ccc(-n2c(-c3ccc(C(F)(F)F)cc3)nc(-c3ccccc3O)c2-c2ccccc2O)cc1

- absorption maximum (in C1COCCO1): 456 nm
SMILES: CCC12C(=C3C(=C4c5ccc(-c6ccccc6)cc5S(=O)(=O)C41CC)C(F)(F)C(F)(F)C3(F)F)c1ccc(-c3ccccc3)cc1S2(=O)=O (stereo not given)

- absorption maximum (in CC#N): 520 nm
SMILES: N#CC(/N=C/c1c(O)ccc2ccccc12)=C(C#N)/N=C/c1c(O)ccc2ccccc12

- absorption maximum (in C1CCCCC1): 451.06 nm
- absorption maximum (in C1COCCO1): 453.93 nm
- absorption maximum (in CC#N): 454.96 nm
- absorption maximum (in CC(C)O): 452.08 nm
- absorption maximum (in CCCCCC): 450.05 nm
- absorption maximum (in ClC(Cl)Cl): 457.04 nm
- absorption maximum (in c1ccccc1): 454.96 nm
SMILES: CC1(C)Cc2c(c3ccccc3c3nc4c(nc23)c2c(c3ccccc34)OC(C)(C)C2)O1

- absorption maximum (in ClCCl): 467 nm
SMILES: O=C(c1ccc2c3c(cccc13)-c1cccc3c1C2CC=C3)c1c(Cc2ccccc2)c2ccc3cccc4c5cccc6ccc1c(c65)c2c34 (stereo not given)

- absorption maximum (in ClCCl): 328 nm
SMILES: c1ccc(C2c3ccccc3-c3cc4c(cc32)-c2ccccc2C4c2ccccc2)cc1 (stereo not given)

- absorption maximum (in ClCCl): 369 nm
SMILES: COc1ccc(/C=C/c2cc(/C=C/c3ccc(OC)cc3)nc(/C=C/c3ccccc3)n2)cc1

- absorption maximum (in CC#N): 348 nm
SMILES: c1ccc(-c2nc3nc4ccccc4nc3n2-c2ccccc2)cc1

- absorption maximum (in CC#N): 324 nm
- absorption maximum (in CCCCCC): 325 nm
- absorption maximum (in CO): 325 nm
- absorption maximum (in ClC(Cl)Cl): 330 nm
SMILES: c1ccc2c(-c3cc(-c4nccs4)nc(-c4nccs4)c3)cccc2c1

- absorption maximum (in CC#N): 342.13 nm
- absorption maximum (in CCO): 335.73 nm
- absorption maximum (in ClCCl): 341 nm
SMILES: CN(C)c1ccc(C#Cc2ccc3c(N(C)C)cc(-c4ccccc4)cc3c2)cc1

- absorption maximum (in ClC(Cl)Cl): 688 nm
- absorption maximum (in ClCCl): 688 nm
SMILES: COc1ccc(C2=[N+]3C(=Nc4c(-c5ccccc5)cc(-c5ccc(OC)cc5)n4[B-]3(F)F)C(c3ccccc3)=C2)cc1

Further lines, the compound ahead of its results:

SMILES: O=C1C=C(Nc2cccc(F)c2)C(=O)c2ccccc21
- absorption maximum (in CCCCCC): 440 nm
- absorption maximum (in CO): 459 nm

SMILES: Cc1cc(C)c(C2=C3C=c4c(c5ccccc5c5ccccc45)=[N+]3[B-](F)(F)n3c2cc2c4ccccc4c4ccccc4c23)c(C)c1
- absorption maximum (in C1CCCCC1): 674 nm
- absorption maximum (in C1CCOC1): 673 nm
- absorption maximum (in CC#N): 666 nm
- absorption maximum (in Cc1ccccc1): 680 nm
- absorption maximum (in ClCCl): 673 nm

SMILES: O=C1c2ccccc2-c2ccc(N3CCN(c4ccccc4)CC3)c3cccc1c23
- absorption maximum (in C1CCCCC1): 423 nm
- absorption maximum (in C1CCOC1): 438 nm
- absorption maximum (in C1COCCO1): 436.2 nm
- absorption maximum (in CC1COC(=O)O1): 445.6 nm
- absorption maximum (in CC#N): 444 nm
- absorption maximum (in CC(C)=O): 441.2 nm
- absorption maximum (in CCCCCCCCO): 445 nm
- absorption maximum (in CCCCCO): 446 nm
- absorption maximum (in CCCCO): 444 nm
- absorption maximum (in CCCO): 445 nm
- absorption maximum (in CCO): 446.8 nm
- absorption maximum (in CCOC(C)=O): 436 nm
- absorption maximum (in CN(C)C=O): 447.2 nm
- absorption maximum (in CO): 445 nm
- absorption maximum (in CS(C)=O): 452 nm
- absorption maximum (in Cc1ccccc1): 435.8 nm
- absorption maximum (in ClC(Cl)Cl): 443 nm

SMILES: Nc1ccc2cn[nH]c2c1
- absorption maximum (in C1CCCCC1): 296 nm

SMILES: Oc1ccccc1/N=C/c1ccccc1Oc1ccccc1
- absorption maximum (in C1CCCCC1): 353 nm
- absorption maximum (in C1CCOC1): 355 nm
- absorption maximum (in C1COCCO1): 367 nm
- absorption maximum (in CC#N): 349 nm
- absorption maximum (in CC(C)=O): 366 nm
- absorption maximum (in CC(C)CO): 352 nm
- absorption maximum (in CC(C)O): 352 nm
- absorption maximum (in CCCCC): 355 nm
- absorption maximum (in CCCCCC): 367 nm
- absorption maximum (in CCCCCCCCO): 355 nm
- absorption maximum (in CCCCCCCO): 354 nm
- absorption maximum (in CCCCCCO): 355 nm
- absorption maximum (in CCCCO): 353 nm
- absorption maximum (in CCCCOC(C)=O): 367 nm
- absorption maximum (in CCCO): 351 nm
- absorption maximum (in CCO): 350 nm
- absorption maximum (in CCOCC): 363 nm
- absorption maximum (in CN(C)C=O): 349 nm
- absorption maximum (in CO): 348 nm
- absorption maximum (in CS(C)=O): 373 nm
- absorption maximum (in Cc1ccccc1): 381 nm
- absorption maximum (in Cc1ccccc1C): 359 nm
- absorption maximum (in ClC(Cl)Cl): 356 nm
- absorption maximum (in ClCCl): 356 nm
- absorption maximum (in N#Cc1ccccc1): 357 nm
- absorption maximum (in OCCO): 349 nm
- absorption maximum (in c1ccccc1): 366 nm

SMILES: CCn1c2ccccc2sc2c(C#N)c3oc4ccccc4oc3c(C#N)c21
- absorption maximum (in ClC(Cl)Cl): 460 nm

SMILES: CCCCCCCCCCCCCCCC[n+]1ccc(/C=C(\C)c2ccccc2)cc1
- absorption maximum (in C1COCCO1): 387.4 nm
- absorption maximum (in CC(C)=O): 383.2 nm
- absorption maximum (in CC(C)O): 385.4 nm
- absorption maximum (in CCCCCC): 398.5 nm
- absorption maximum (in CCCCO): 390.5 nm
- absorption maximum (in CCCO): 398.5 nm
- absorption maximum (in CCO): 399.5 nm
- absorption maximum (in CN(C)C=O): 384.4 nm
- absorption maximum (in CO): 400.6 nm
- absorption maximum (in CS(C)=O): 384.6 nm
- absorption maximum (in Cc1ccccc1): 393.5 nm
- absorption maximum (in ClC(Cl)(Cl)Cl): 399.5 nm
- absorption maximum (in ClC(Cl)Cl): 384 nm
- absorption maximum (in ClCCl): 386.4 nm
- absorption maximum (in c1ccccc1): 386.8 nm

SMILES: CC[n+]1c(C=C2C(=O)C(C=C3N(C)c4ccc(Cl)cc4C3(C)C)=C2[O-])sc2ccccc21
- absorption maximum (in CO): 634 nm
- absorption maximum (in ClC(Cl)Cl): 649 nm
- absorption maximum (in ClCCl): 650 nm

SMILES: COc1ccc2cc(C#N)c(=N)oc2c1
- absorption maximum (in ClCCl): 358 nm

SMILES: CC(C)(C)c1cc(-c2c3cc(c(-c4cc(C(C)(C)C)cc(C(C)(C)C)c4)c4ccc([nH]4)c(-c4ccc([N+](=O)[O-])cc4)c4nc(c(-c5ccc([N+](=O)[O-])cc5)c5ccc2[nH]5)C=C4)N=C3)cc(C(C)(C)C)c1
- absorption maximum (in ClCCl): 726 nm

SMILES: Cc1cccc(C)c1-c1cc2c(C)c3c4cc5nc6cc7c(cc6nc5cc4c3c(C)c2cc1-c1c(C)cccc1C)c1c(C)c2cc(-c3c(C)cccc3C)c(-c3c(C)cccc3C)cc2c(C)c71
- absorption maximum (in ClC(Cl)Cl): 503 nm

SMILES: O=Cc1ccc(-c2ccc(O)c(-c3nc4ccccc4s3)c2)s1
- absorption maximum (in ClCCl): 350 nm
- absorption maximum (in O): 338 nm

SMILES: C(=C1c2ccccc2CCc2ccccc21)c1ccc(-c2cc(-c3ccc(C=C4c5ccccc5CCc5ccccc54)cc3)cc(-c3ccc(C=C4c5ccccc5CCc5ccccc54)cc3)c2)cc1
- absorption maximum (in C1CCOC1): 318 nm

SMILES: c1cc2ccc1-c1ccc(cc1)-c1ccc([se]1)-c1ccc(cc1)-c1ccc(cc1)-c1ccc([se]1)-c1ccc(cc1)-c1ccc(cc1)-c1ccc([se]1)-c1ccc(cc1)-c1ccc(cc1)-c1ccc-2[se]1
- absorption maximum (in C1CCOC1): 370 nm

SMILES: N#C/C(=C\c1ccncc1)c1nc(-c2ccc(Cl)cc2)cs1
- absorption maximum (in CC#N): 357 nm

SMILES: CCN(CC)c1cc2oc3cc(O)c(F)cc3c(=O)c2cc1F
- absorption maximum (in CCO): 379 nm

SMILES: CCOC(=O)C1=C(C(=O)OCC)C2(c3ccccc3-c3c(Br)cc(Br)cc32)C2(/C=C/c3ccc(Cl)cc3)c3cc(OC)c(OC)cc3CCN12 (stereo not given)
- absorption maximum (in ClCCl): 329 nm

SMILES: CN(C)c1ccc(C#Cc2ccc3ccc4ccc(C#Cc5ccc(N(C)C)cc5)c5ccc2c3c45)cc1
- absorption maximum (in C1COCCO1): 429 nm
- absorption maximum (in CC(C)=O): 431 nm
- absorption maximum (in CCCCCC): 421 nm
- absorption maximum (in CCCCCCO): 429 nm
- absorption maximum (in CCO): 426 nm
- absorption maximum (in CCOC(C)=O): 428 nm
- absorption maximum (in CO): 427 nm
- absorption maximum (in Cc1ccccc1): 429 nm
- absorption maximum (in ClCCl): 429 nm

SMILES: O=[N+]([O-])c1ccc(S(=O)(=O)Nc2ccc(C#Cc3ccc4ccc5ccc(C#Cc6ccc(NS(=O)(=O)c7ccc([N+](=O)[O-])cc7[N+](=O)[O-])cc6)c6ccc3c4c56)cc2)c([N+](=O)[O-])c1
- absorption maximum (in CO): 402 nm

SMILES: COC1(OC)C2(Cl)c3nc4cc(-c5cccs5)ccc4nc3C1(Cl)C1C[C@H]3[C@@H](CC12)C1(Cl)c2nc4cc(-c5cccs5)ccc4nc2C3(Cl)C1(OC)OC (stereo not given in full)
- absorption maximum (in CC#N): 366 nm
- absorption maximum (in CCCCCC): 358 nm
- absorption maximum (in CCOC(C)=O): 362 nm
- absorption maximum (in CO): 369 nm
- absorption maximum (in Cc1ccccc1): 364 nm
- absorption maximum (in ClC(Cl)Cl): 368 nm
- absorption maximum (in ClCCl): 369 nm

SMILES: CC1(C)c2ccccc2N(c2ccc(-c3nc(-c4ccccc4)cc(-c4ccccc4)n3)cc2)c2ccccc21
- absorption maximum (in Cc1ccccc1): 366.6 nm

SMILES: CCC1=C(C)C2=Cc3c(I)c(I)cn3[B-](F)(F)[N+]2=C1C
- absorption maximum (in C1CCCCC1): 527.5 nm
- absorption maximum (in CC(C)=O): 509 nm
- absorption maximum (in CCO): 517.5 nm
- absorption maximum (in CCOC(C)=O): 515 nm
- absorption maximum (in CO): 513 nm
- absorption maximum (in OCC(F)(F)F): 501 nm

SMILES: C[Si](C)(C)c1cccc2ccccc12
- absorption maximum (in C1CCCCC1): 294 nm
